Data from PubChem BioAssay (NCI).
Where “and” joins values, the source holds several entries; their conditions need not be identical. Equal values may be shown once.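 Following 48 hours of exposure in 96-well plates, responses at five concentrations were used to interpolate endpoints linearly. GI50: concentration for 50% inhibition of growth. TGI denotes the concentration required for complete inhibition of growth.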

Experiments:
Assay in all cases: NCI anticancer screen, dose series, 48 h
MALME-3M melanoma = system: MALME-3M melanoma
A498 renal = system: A498 renal
SR leukemia = system: SR leukemia
UACC-257 melanoma = system: UACC-257 melanoma
SF-268 CNS = system: SF-268 CNS
OVCAR-3 ovarian = system: OVCAR-3 ovarian
HOP-62 NSCLC = system: HOP-62 NSCLC
HT29 colon = system: HT29 colon
K-562 leukemia = system: K-562 leukemia
A549 NSCLC = system: A549 NSCLC
MDA-MB-231 breast = system: MDA-MB-231 breast
EKVX NSCLC = system: EKVX NSCLC
KM12 colon = system: KM12 colon
LOX IMVI melanoma = system: LOX IMVI melanoma
SNB-19 CNS = system: SNB-19 CNS
U251 CNS = system: U251 CNS
NCI-H460 lung = system: NCI-H460 lung
CCRF-CEM leukemia = system: CCRF-CEM leukemia
NCI-H23 lung = system: NCI-H23 lung
BT-549 breast = system: BT-549 breast
OVCAR-8 ovarian = system: OVCAR-8 ovarian
NCI-H226 lung = system: NCI-H226 lung
UACC-62 melanoma = system: UACC-62 melanoma
SF-539 CNS = system: SF-539 CNS
PC-3 prostate = system: PC-3 prostate
OVCAR-4 ovarian = system: OVCAR-4 ovarian
MDA-MB-435 = system: MDA-MB-435
DU-145 prostate = system: DU-145 prostate
SK-MEL-5 melanoma = system: SK-MEL-5 melanoma
HOP-92 NSCLC = system: HOP-92 NSCLC
SK-OV-3 ovarian = system: SK-OV-3 ovarian
M14 melanoma = system: M14 melanoma
IGROV1 ovarian = system: IGROV1 ovarian
HCT-116 colon = system: HCT-116 colon
ACHN renal = system: ACHN renal
MCF7 breast = system: MCF7 breast
NCI/ADR-RES ovarian = system: NCI/ADR-RES ovarian
SN12C renal = system: SN12C renal
OVCAR-5 ovarian = system: OVCAR-5 ovarian
HS 578T breast = system: HS 578T breast
HCT-15 colon = system: HCT-15 colon
CAKI-1 renal = system: CAKI-1 renal
TK-10 renal = system: TK-10 renal
RXF 393 renal = system: RXF 393 renal
HCC-2998 colon = system: HCC-2998 colon
UO-31 renal = system: UO-31 renal
T-47D breast = system: T-47D breast
SNB-75 CNS = system: SNB-75 CNS
SF-295 CNS = system: SF-295 CNS
SW-620 colon = system: SW-620 colon
MOLT-4 leukemia = system: MOLT-4 leukemia
NCI-H522 lung = system: NCI-H522 lung
RPMI-8226 leukemia = system: RPMI-8226 leukemia
786-0 renal = system: 786-0 renal
SK-MEL-28 melanoma = system: SK-MEL-28 melanoma
COLO 205 colon = system: COLO 205 colon
HL-60(TB) leukemia = system: HL-60(TB) leukemia

CCc1nc(C(N)=O)c(Nc2ccc(N3CCC(N4CCN(C)CC4)CC3)c(OC)c2)nc1NC1CCOCC1
GI50 (MALME-3M melanoma): 0.946 µM and 0.239 µM and 0.764 µM | GI50 (A498 renal): 0.96 µM and 0.165 µM and 0.931 µM | TGI (A498 renal): 4.41 µM and 0.6 µM and 4.9 µM | GI50 (SR leukemia): < 0.0135 µM and 0.0021 µM and 0.013 µM | TGI (UACC-257 melanoma): 24.5 µM and > 10 µM and 24.3 µM | TGI (SF-268 CNS): 22.8 µM and > 2.72 µM and 24.5 µM | GI50 (OVCAR-3 ovarian): 8.01 µM and 3.69 µM and 9.27 µM | TGI (OVCAR-3 ovarian): 22.9 µM and > 10 µM | GI50 (HOP-62 NSCLC): 1.26 µM and 0.238 µM and 1.2 µM | TGI (HOP-62 NSCLC): 16.3 µM and > 2.98 µM and 17.6 µM | GI50 (HT29 colon): 0.569 µM and 0.251 µM and 0.467 µM | TGI (HT29 colon): > 43.8 µM | TGI (K-562 leukemia): 33 µM and > 2.39 µM and 45.4 µM | GI50 (A549 NSCLC): 2.35 µM and 0.379 µM and 2.61 µM | TGI (A549 NSCLC): 15.2 µM and > 10 µM and 16.1 µM | GI50 (MDA-MB-231 breast): 3.38 µM and 0.829 µM and 3.52 µM | TGI (MDA-MB-231 breast): 17.7 µM and > 10 µM and 17.2 µM | GI50 (EKVX NSCLC): 0.83 µM and 0.375 µM and 0.727 µM | TGI (EKVX NSCLC): 18.2 µM and > 4.97 µM and 19 µM | GI50 (KM12 colon): 0.0933 µM and 0.0338 µM and 0.0649 µM | TGI (KM12 colon): 12.8 µM and > 10 µM and 12 µM | GI50 (LOX IMVI melanoma): 2.12 µM and 0.337 µM and 2.82 µM | TGI (LOX IMVI melanoma): 17.6 µM and > 2.34 µM and 19.4 µM | TGI (SNB-19 CNS): 20.2 µM and > 10 µM and 22.7 µM | GI50 (U251 CNS): 5.9 µM and 1.28 µM and 7.96 µM | TGI (U251 CNS): 19.8 µM and > 3.84 µM and 21.2 µM | GI50 (NCI-H460 lung): 1.37 µM and 0.501 µM and 1.27 µM | TGI (NCI-H460 lung): 17.4 µM and > 10 µM and 19.5 µM | GI50 (CCRF-CEM leukemia): 3.76 µM and 0.901 µM and 7.12 µM | TGI (CCRF-CEM leukemia): 30.1 µM and > 10 µM and 44.4 µM | GI50 (NCI-H23 lung): 1.48 µM and 0.386 µM and 1.2 µM | TGI (NCI-H23 lung): 23.5 µM and > 2.7 µM and 24.7 µM | GI50 (BT-549 breast): 2.61 µM and 0.521 µM and 3.56 µM | TGI (BT-549 breast): 14.7 µM and > 2.84 µM and 17.3 µM | GI50 (OVCAR-8 ovarian): 10.3 µM and 1.62 µM and 10.1 µM | TGI (OVCAR-8 ovarian): 36.8 µM and > 10 µM and 30.2 µM | GI50 (NCI-H226 lung): 5.45 µM and > 10 µM and 5.78 µM | TGI (NCI-H226 lung): 28.8 µM and > 10 µM and 30 µM | GI50 (UACC-62 melanoma): 1.53 µM and 0.527 µM and 1.56 µM | TGI (UACC-62 melanoma): 16.9 µM and > 10 µM and 16.4 µM | GI50 (SF-539 CNS): 5.46 µM and 1.05 µM and 7.87 µM | TGI (SF-539 CNS): 20.3 µM and > 2.27 µM and 22.1 µM | TGI (PC-3 prostate): 25.7 µM and > 10 µM and 26 µM | GI50 (OVCAR-4 ovarian): 12.8 µM and > 10 µM and 13.8 µM | TGI (OVCAR-4 ovarian): 27.8 µM and > 10 µM and 32.2 µM | GI50 (MDA-MB-435): 3.23 µM and 0.511 µM and 3.96 µM | TGI (MDA-MB-435): 20.7 µM and > 6.91 µM and 20.8 µM | GI50 (DU-145 prostate): 0.904 µM and 0.359 µM and 0.719 µM | TGI (DU-145 prostate): 18.5 µM and > 10 µM and 17.3 µM | GI50 (SK-MEL-5 melanoma): 12.4 µM and > 10 µM and 13.2 µM | TGI (SK-MEL-5 melanoma): 25.4 µM and > 10 µM and 26.4 µM | GI50 (HOP-92 NSCLC): 0.173 µM and 0.0827 µM and 0.247 µM | TGI (HOP-92 NSCLC): 1.62 µM and 0.64 µM and 1.63 µM | GI50 (SK-OV-3 ovarian): 1.57 µM and 0.397 µM and 1.51 µM | TGI (SK-OV-3 ovarian): 12.3 µM and > 10 µM and 13.8 µM | GI50 (M14 melanoma): 1.1 µM and 0.253 µM and 0.961 µM | TGI (M14 melanoma): 16.4 µM and > 2.57 µM and 17.9 µM | GI50 (IGROV1 ovarian): 0.876 µM and 0.279 µM and 0.79 µM | TGI (IGROV1 ovarian): 8.09 µM and > 10 µM and 8.12 µM | GI50 (HCT-116 colon): 1.39 µM and 0.34 µM and 1.23 µM | TGI (HCT-116 colon): 14.1 µM and > 10 µM and 14.9 µM | GI50 (ACHN renal): 2.07 µM and 0.42 µM and 1.48 µM | TGI (ACHN renal): 17.1 µM and > 10 µM and 15.4 µM | GI50 (MCF7 breast): 0.672 µM and 0.258 µM and 0.493 µM | TGI (MCF7 breast): 17.2 µM and > 10 µM and 17.7 µM | GI50 (NCI/ADR-RES ovarian): 4.33 µM and 3.75 µM and 5.19 µM | TGI (NCI/ADR-RES ovarian): 22.2 µM and > 10 µM and 26.8 µM | GI50 (SN12C renal): 0.545 µM and 0.247 µM and 0.491 µM | TGI (SN12C renal): 20.2 µM and > 10 µM and 17.5 µM | GI50 (OVCAR-5 ovarian): 0.484 µM and 0.279 µM and 0.486 µM | TGI (OVCAR-5 ovarian): 14.5 µM and > 10 µM | GI50 (HS 578T breast): 1.56 µM and 0.514 µM and 1.85 µM | TGI (HS 578T breast): 9.48 µM and > 2.32 µM and 11.3 µM | GI50 (HCT-15 colon): 1.68 µM and 0.38 µM and 1.41 µM | TGI (HCT-15 colon): 15.7 µM and > 10 µM and 16 µM | GI50 (CAKI-1 renal): 1.24 µM and 0.236 µM and 1.21 µM | TGI (CAKI-1 renal): 12.9 µM and > 10 µM and 13.4 µM | GI50 (TK-10 renal): 1.75 µM and 0.23 µM and 1.35 µM | GI50 (RXF 393 renal): 1.39 µM and 0.358 µM and 1.7 µM | TGI (RXF 393 renal): 4.54 µM and 1.12 µM and 6.27 µM | GI50 (HCC-2998 colon): 8.08 µM and 1.4 µM and 8.55 µM | TGI (HCC-2998 colon): 22.2 µM and > 3.14 µM and 23.5 µM | GI50 (UO-31 renal): 1.01 µM and 0.282 µM and 1.23 µM | TGI (UO-31 renal): 8.61 µM and > 10 µM and 8.63 µM | GI50 (T-47D breast): 13.2 µM and > 10 µM and 13.4 µM | TGI (T-47D breast): 30 µM and > 10 µM and 32.7 µM | GI50 (SNB-75 CNS): 0.598 µM and 0.423 µM and 0.67 µM | TGI (SNB-75 CNS): 5.4 µM and 1.91 µM and 7.74 µM | GI50 (SF-295 CNS): 3.59 µM and 1.02 µM and 4.54 µM | TGI (SF-295 CNS): 15.3 µM and > 3.5 µM and 17.3 µM | GI50 (SW-620 colon): 1.33 µM and 0.366 µM and 1.29 µM | TGI (SW-620 colon): 13.6 µM and > 10 µM and 14.8 µM | GI50 (MOLT-4 leukemia): 3.55 µM and 0.794 µM and 4.06 µM | TGI (MOLT-4 leukemia): 21.5 µM and > 2.7 µM and 25.4 µM | GI50 (NCI-H522 lung): 4.96 µM and 0.763 µM and 6.27 µM | TGI (NCI-H522 lung): 21.7 µM and > 2.52 µM and 23.9 µM | TGI (RPMI-8226 leukemia): 30.8 µM and > 2.71 µM and 36.4 µM | GI50 (786-0 renal): 2.48 µM and 0.461 µM and 2.38 µM | TGI (786-0 renal): 13.8 µM and > 10 µM and 14.1 µM | GI50 (SK-MEL-28 melanoma): 5.04 µM and 0.641 µM and 3.51 µM | TGI (SK-MEL-28 melanoma): 21.2 µM and > 2.91 µM and 19.1 µM | GI50 (COLO 205 colon): 1.55 µM and 0.281 µM and 1.57 µM | TGI (COLO 205 colon): 9.65 µM and > 1.98 µM and 14.2 µM | GI50 (HL-60(TB) leukemia): 0.871 µM and 0.367 µM and 0.968 µM | TGI (HL-60(TB) leukemia): 11.3 µM and > 10 µM and 14.9 µM
